Data published in patent US10188636B2 (Cipla (UK) Limited, priority 2015, dated 2019).

Columns and labels:
[1] = test system: primary rat mixed cortical cultures; assay: Aβ1-42-induced cell death (LDH release) in primary mixed cortical cultures; assay type: cell-based; conditions: 37° C., 5% CO2, 72 hours, varied concentrations, FIG. 1
Procedure: Mixed cortical cultures are prepared from E18 Wistar rat embryos. The cortices are dissected out and tissue cut into small pieces. The cells are separated by 15-min incubation with DNase and papain. The cells are collected by centrifugation (1500 rpm, 5 min). […] After 3-4 h, the medium is changed to MEM (2 g/L glucose) supplemented with 2 mM glutamine, 10 μg/mL gentamicin, 5% HS-HI. After three days in vitro, medium containing MEM (Minimum Essential Media) (2 g/L glucose) supplemented with glutamine, gentamicin and 5% […] is changed to the cells. On day 6 in vitro, the unwanted cell division is inhibited by adding cytosine arabinoside (10 μM final concentration) for 24 h. The cultures refed with MEM (2 g/L glucose) supplemented with glutamine, gentamicin and 5% HS-HI before experiments. Aß1-42 Exposure The wells in good shape are chosen for experiment on day 10 in vitro. Test compounds are diluted in MEM (2 g/L glucose) supplemented with L-glutamine, gentamicin, and 5% HS-HI. […] The absorbance at 340 nm is measured immediately using a 3-min kinetic measurement protocol in Multiskan FC ELISA reader (Thermo, Finland). The change in absorbance/min is determined, which is directly proportional to the released LDH (=cell death).

APPSwDI/NOS2−/− mice = assay: Contextual Fear Conditioning test in APPSwDI/NOS2−/− transgenic mice; assay type: in vivo; conditions: once-a-day p.o., after two months of treatment, vs vehicle, FIG. 2
Procedure: -/- are double transgenic mice which display […] spatial memory, neuronal loss and neurofibrillary tangle like pathology. […] Treatment was continued for 2.5 months. After two months of treatment, starting at the age of 14.5 months the mice were subjected to Contextual Fear Conditioning (CFC) test. The test was performed as follows Training consisted of placing a mouse in a chamber, bright house light on, and allowing exploration for 2 min. Afterward an auditory cue (1700 Hz, 80 dB, conditioned stimulus (CS)) was presented for 15 s. A 2 s foot shock (1.5 mA; unconditioned stimulus (US)) was administered for the final 2 s of the CS. This procedure was repeated, and the mouse was removed from the chamber 30 s later. Twenty hours (±30 min) after the training, the mouse was returned to the same chamber in which the training occurred (memory for context), and freezing behavior was recorded by a computerized camera tracking system. The automated Freeze Frame system, which digitized the video signal at 4 Hz and compared movement of the mouse frame by frame, was used to score the amount of freezing. At the end of the 5 min context test, the mouse was returned to its home cage. Freezing scores for each subject were expressed as a percentage for memory for context.

GFAP = GFAP immunohistochemistry in icv streptozotocin-induced Alzheimer's disease model; assay type: in vivo; conditions: icv-STZ mice, oral once daily day 0 to day 14; betahistine 30 and 100 mg/kg, donepezil 0.5 mg/kg; compared with Vehicle group; FIG. 3
Procedure: (§1) Seven-week-old male C57BL/6 mice were obtained from Japan SLC, (Japan). The animals were maintained in a SPF facility under controlled conditions of temperature (23±2° C.), humidity (45±10%), lighting (12-hour artificial light and dark cycles; light from 8:00 to 20:00) and air exchange. On day 0 and day 2, 60 mice were anesthetized with pentobarbital sodium (Kyoritsu Seiyalu, Japan) and intracerebroventricularly (icy) administered two doses of streptozotocin (STZ, Sigma-Aldrich, USA) in saline at a dose of 3 mg/kg. The icv-STZ-induced Alzheimer's disease model mice were divided into 6 groups of 10 mice based on their body weight on the day before the start of the treatment.

MAP2 = MAP2 mRNA expression by quantitative RT-PCR in icv streptozotocin-induced Alzheimer's disease model; assay type: in vivo, mice; conditions: for Expression levels of MAP2 gene (Mean ± SD): relative mRNA normalized to GAPDH, Vehicle 1.0 ± 0.4
Procedure: as §1
Expression levels of MAP2, a cytoskeletal modulator that has been implicated in the pathogenesis of Alzheimer's disease and a member of MAP2/tau family, was measured by quantitative RT-PCR. Total RNA was extracted from brain samples using RNAiso (Takara Bio, Japan) according to the manufacturer's instructions. One μg of RNA was reverse-transcribed using a reaction mixture containing 4.4 mM MgCl2 (F. Hoffmann-La Roche, Switzerland), 40 U RNase inhibitor (Toyobo, Japan), 0.5 mM dNTP (Promega, USA), 6.28 μM random hexamer (Promega), 5× first strand buffer (Promega), 10 mM dithiothreitol (Invitrogen, USA) and 200 U MMLV-RT (Invitrogen) in a final volume of 20 μL. The reaction was carried out for 1 hour at 37° C., followed by 5 minutes at 99° C. Real-time PCR was performed using real-time PCR DICE and SYBR premix Taq (Takara Bio). To calculate the relative mRNA expression level, the expression of each gene was normalized to that of reference gene GAPDH.

histamine H3 receptors = histamine H3 receptors (Homo sapiens, UniProt Q9Y5N1); conditions: general statement in description; cited from earlier work
Chain of histamine H3 receptors (Q9Y5N1 whole entry): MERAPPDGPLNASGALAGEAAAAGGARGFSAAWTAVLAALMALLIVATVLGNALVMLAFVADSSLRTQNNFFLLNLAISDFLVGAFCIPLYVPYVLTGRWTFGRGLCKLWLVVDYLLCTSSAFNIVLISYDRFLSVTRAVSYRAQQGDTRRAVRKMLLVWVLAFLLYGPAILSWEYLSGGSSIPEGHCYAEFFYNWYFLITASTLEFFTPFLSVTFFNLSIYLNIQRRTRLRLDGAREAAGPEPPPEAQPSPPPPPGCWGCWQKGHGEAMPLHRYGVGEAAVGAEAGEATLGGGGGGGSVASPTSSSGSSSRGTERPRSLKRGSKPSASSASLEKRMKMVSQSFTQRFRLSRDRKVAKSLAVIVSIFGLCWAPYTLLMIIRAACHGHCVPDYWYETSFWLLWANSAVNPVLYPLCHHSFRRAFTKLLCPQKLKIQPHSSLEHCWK

| Compound | protective effect against Aβ 1-42-induced cell death [1] | Freezing score (memory for context) (APPSwDI/NOS2−/− mice) | GFAP-positive area (GFAP) | Expression levels of MAP2 gene (Mean ± SD) (MAP2; Betahistine high dose (100 mg/kg p.o. once daily day 0-14), n = 10) | Expression levels of MAP2 gene (Mean ± SD) (MAP2; Betahistine low dose (30 mg/kg p.o. once daily day 0-14), n = 10) | MAP2 mRNA expression (in words) (MAP2; icv-STZ mice brain, oral once daily day 0 to day 14, normalized to GAPDH) | affinity as an antagonist for histamine H3 receptors (histamine H3 receptors) | Expression levels of MAP2 gene (Mean ± SD) (MAP2; Donepezil 0.5 mg/kg p.o. once daily day 0-14, n = 10) |
| --- | --- | --- | --- | --- | --- | --- | --- | --- |
| CNCCc1ccccn1 [Betahistine] | profound protective effect | improved freezing score | significant decreases | 0.7 ± 0.2 | 0.7 ± 0.2 | significant down regulation | very strong affinity |  |
| COc1cc2c(cc1OC)C(=O)C(CC1CCN(Cc3ccccc3)CC1)C2 (stereo not drawn) [Donepezil, donepezil] |  |  | significant decreases |  |  |  |  | 0.7 ± 0.2 |
